# According to patent publication US4665098A, “Pharmaceutical composition of N-(4-hydroxyphenyl) retinamide having increased bioavailability” (McNeilab, Inc., priority 1985, dated 1987):
# What was measured:
# [1] = Stability of 4-EPR internal standard solution stored in the refrigerator; format: physicochemical; details: six months
# Procedure: Assay is by high pressure liquid chromatography using a Waters HPLC System consisting of a Model 6000A solvent delivery system with a Model 440 UV absorbance detector (365 nm filter), and either a Model U6K injector (2 ml sample loop) or a Waters Intelligent Sample Processor (WISP™). […] The column is a 10 cm×4.6 mm (i.d.) Brownlee Labs RP-18 Spheri-5 (5μ) stainless steel column equipped with a 3 cm×4.6 mm (i.d.) Brownlee Labs RP-18 (10μ) stainless steel guard column. The mobile phase is acetonitrile:water:glacial acetic acid (75:23:2, v/v/v) and is prepared in 2 liter quantities. The components of the mobile phase are mixed together, filtered through a 5 μm Millipore® filter apparatus and degassed under vacuum for one-half hour while stirring. The internal standard for the assay is N-(4-ethoxyphenyl)retinamide (4-EPR). […]
# The procedure of Example 1 is followed using a 4 -EPR internal standard containing 100 μg/ml which is prepared by weighing 10.0 mg of 4-EPR into a 100 ml volumetric flask and bringing to volume with methanol. A 1/2000 dilution of this stock solution is made by transferring 0.1 ml of 100 μg/ml 4-EPR solution into a 200 ml volumetric flask and bringing to volume with methanol. The resulting solution contains 50 ng/ml of 4-EPR. […] For the assay, a 1.0 ml aliquot of plasma is transferred to a 15 ml screw-cap conical bottomed glass centrifuge tube. […]
# rats = details: oral; cited from earlier work
# [2] = cited from earlier work
# [3] = one formulation of HPR, 5 mg/kg, rats, cited from earlier work
# mammary cancer = details: rats, induced with N-nitroso-N-methyl urea; cited from earlier work
# [4] = Bioavailability of HPR in vivo (general statements); details: small particle size of the HPR
# [5] = cited from earlier work; remark: listed apart in the source
structure (smiles),measurement,setting,value
"CCOc1ccc(NC(=O)C=C(C)C=CC=C(C)C=CC2=C(C)CCCC2(C)C)cc1 [Formulation 4-EPR, N-(4-ethoxyphenyl)retinamide]",Stability of 4-EPR solution,[1]; 50 ng/ml in methanol,without signs of decomposition
same,Stability of 4-EPR solution,[1]; 500 ng/ml in acetonitrile,without signs of decomposition
"CC1=C(/C=C/C(C)=C/C=C/C(C)=C/C(=O)Nc2ccc(O)cc2)C(C)(C)CCC1 [HPR, N-(4-Hydroxyphenyl)-all-trans-retinamide]",Toxicity relative to retinyl acetate and retinoic acid,rats,less toxic when given orally to rats then retinyl acetate and retinoic acid
same,Solubility in water,[2],virtually insoluble in water
same,Half-life of elimination,[3]; oral,12 h
same,Oral absorption,[3]; oral,incompletely absorbed after oral administration
same,Elimination,[3],eliminated slowly
same,Protection against mammary cancer,mammary cancer,protects against mammary cancer in rats
same,Effect of small particle size on bioavailability,[4],tends to aid bioavailability
CC1=C(/C=C/C(C)=C/C=C/C(C)=C\C(=O)O)C(C)(C)CCC1 [isotretinoin],Effect of food intake on bioavailability,[5],affected by food intake
